Source: the RepoRT retention time repository

assay: HILIC, Waters ACQUITY UPLC BEH Amide, 100 × 2.1 mm, 1.7 µm; A: water + 0.125% formic acid + 10 mM ammonium formate; B: 5% water + 95% acetonitrile + 0.125% formic acid + 10 mM ammonium formate; gradient (min/%B) 0/100 2/100 7.7/70 9.5/40 10.25/30 12.75/100 17/100; conditions: stereoisomer not certain

LC retention time [min]	Compound
7.67	CC(=O)OCC(N)C(=O)O (configuration not stated) [O-Acetylserine]
9.23	NCCOP(=O)(O)O [O-Phosphocolamine]
9.85	NC(COP(=O)(O)O)C(=O)O (configuration not stated) [O-Phosphoserine]
8.06	NC(CCOC(=O)CCC(=O)O)C(=O)O (configuration not stated) [O-Succinylhomoserine]
1.24	O=C(O)CCCCCCCCCCCCCCCCC(=O)O [Octadecanedioic acid]
6.98	CCCCCCCC=O [Octanal]
8.47	CCCCCCCCO [Octanol]
10.3	CC(NC(CCCN=C(N)N)C(=O)O)C(=O)O (configuration not stated) [Octopine]
4.56	Cc1cc2c(s1)Nc1ccccc1N=C2N1CCN(C)CC1 [Olanzapine]
4.76	CCCc1nc(C(C)(C)O)c(C(=O)O)n1Cc1ccc(-c2ccccc2-c2nn[nH]n2)cc1 [Olmesartan]
4.41	CN(C)CCC=C1c2ccccc2COc2ccc(CC(=O)O)cc21 [Olopatadine]
2.83	Cc1nccn1CC1CCc2c(c3ccccc3n2C)C1=O (configuration not stated) [Ondansetron]
0.89	CCCCCCCCCCCC(CC1OC(=O)C1CCCCCC)OC(=O)C(CC(C)C)NC=O (configuration not stated) [Orlistat]
4.19	COc1cc(C)c(Cc2cnc(N)nc2N)cc1OC [Ormetroprim]
1.08	Cc1ncc([N+](=O)[O-])n1CC(O)CCl (configuration not stated) [Ornidazole]
9.6	NCCCC(N)C(=O)O (configuration not stated) [Ornithine]
2.52	Nc1ccccc1S(=O)(=O)O [Orthanilic acid]
2.94	CCN(CC)CC1CCCCN1CC(=O)N1c2ccccc2C(=O)Nc2cccnc21 (configuration not stated) [Otenzepad]
1.11	O=C(O)CCc1nc(-c2ccccc2)c(-c2ccccc2)o1 [Oxaprozin]
1.08	Clc1ccc(CON=C(Cn2ccnc2)c2ccc(Cl)cc2Cl)c(Cl)c1 [Oxiconazole]
2.01	CC[N+](C)(CC)CCOC(=O)C(O)(c1ccccc1)C1CCCCC1 (configuration not stated) [Oxyphenonium]
2.99	O=C(O)C=Cc1ccc(Cn2ccnc2)cc1 [Ozagrel]

LC retention time [min]	Compound
1.3	COc1ccc(C(=O)O)cc1 [P-Anisic acid]
3.23	CCCCCCCCCCCCCCCC(=O)OC(CC(=O)[O-])C[N+](C)(C)C (configuration not stated) [Palmitoylcarnitine cation]
4.05	O=C1c2cccc3c2C(CCC3)CN1C1CN2CCC1CC2 (configuration not stated) [Palonosetron]
1.9	CC(C)(CO)C(O)C(=O)NCCCO (configuration not stated) [Panthenol]
1.21	COc1ccnc(CS(=O)c2nc3ccc(OC(F)F)cc3[nH]2)c1OC (configuration not stated) [Pantoprazole]
3.5	CC(C)(CO)C(O)C(=O)NCCC(=O)O (configuration not stated) [Pantothenic acid]
0.98	CCC(=O)NS(=O)(=O)c1ccc(-c2c(-c3ccccc3)noc2C)cc1 [Parecoxib]
3.08	Fc1ccc(C2CCNCC2COc2ccc3c(c2)OCO3)cc1 (configuration not stated) [Paroxetine]
2.49	CC1COc2c(C3(N)CC3)c(F)cc3c(=O)c(C(=O)O)cn1c23 (configuration not stated) [Pazufloxacin]
3.65	CCn1cc(C(=O)O)c(=O)c2cc(F)c(N3CCN(C)CC3)cc21 [Pefloxacin]
6.71	Nc1nc2c(ncn2CCC(CO)CO)c(=O)[nH]1 [Penciclovir]
2.14	O=C1C2CCCCC2C(=O)N1CCCCN1CCN(c2nsc3ccccc23)CC1 (configuration not stated) [Perospirone]
4.47	COc1cc(-c2[o+]c3cc(O)cc(O)c3cc2OC2OC(CO)C(O)C(O)C2O)cc(O)c1O (configuration not stated) [Petunidin-3-glucoside]
4.45	NNCCc1ccccc1 [Phenelzine]
1.02	CC(=O)OCCc1ccccc1 [Phenethylacetate]
5.4	O=CCc1ccccc1 [Phenylacetaldehyde]
6.03	NC(=O)CCC(NC(=O)Cc1ccccc1)C(=O)O (configuration not stated) [Phenylacetylglutamine]
2.88	O=C(O)CNC(=O)Cc1ccccc1 [Phenylacetylglycine]
7.05	O=P(O)(O)Oc1ccccc1 [Phenylphosphoric acid]
1.5	O=C(CCc1ccc(O)cc1)c1c(O)cc(O)cc1O [Phloretin]
1.34	O=C(c1ccccc1)c1c(O)cc(O)cc1O [Phlorobenzophenone]
1.15	Oc1cc(O)cc(O)c1 [Phloroglucinol]

The remaining lines, values behind:

Compound	LC retention time [min]
C[N+](C)(C)CCCCC(N)C(=O)[O-] (configuration not stated) [NEPSILON,NEPSILON,NEPSILON-TRIMETHYLLYSINE]	9.29
CCCCN1CCCC1CNC(=O)c1cc(C#N)c2ccccc2c1OC (configuration not stated) [Nafadotride]	2.05
COc1ccccc1N1CCN(CC(O)COc2cccc3ccccc23)CC1 (configuration not stated) [Naftopidil]	1.99
Oc1ccc2c3c1OC1C(O)CCC4(O)C(C2)N(CC2CCC2)CCC314 (configuration not stated) [Nalbuphine]	5.25
Oc1ccc2c3c1OC1c4[nH]c5ccccc5c4CC4(O)C(C2)N(CC2CC2)CCC314 (configuration not stated) [Naltrindole]	4.45
CC12CCC3C4CCC(=O)C=C4CCC3C1CCC2O (configuration not stated) [Nandrolone]	1.06
CC1OC(OC2C(Oc3cc(O)c4c(c3)OC(c3ccc(O)cc3)CC4=O)OC(CO)C(O)C2O)C(O)C(O)C1O (configuration not stated) [Naringin]	5.61
CC(C)C1CCC(C(=O)NC(Cc2ccccc2)C(=O)O)CC1 (configuration not stated) [Nateglinide]	1.3
CCc1nn(CCCN2CCN(c3cccc(Cl)c3)CC2)c(=O)n1CCOc1ccccc1 [Nefazodone]	1.88
Cc1c(O)cccc1C(=O)NC(CSc1ccccc1)C(O)CN1CC2CCCCC2CC1C(=O)NC(C)(C)C (configuration not stated) [Nelfinavir]	1.55
CC(=O)OCC=C(C)CCC=C(C)C [Nerylacetate]	0.99
O=C(CCNNC(=O)c1ccncc1)NCc1ccccc1 [Nialamide]	1.69
O=C(NCCO[N+](=O)[O-])c1cccnc1 [Nicorandil]	1.11
NC(=O)c1ccc[n+](C2OC(CO)C(O)C2O)c1 (configuration not stated) [Nicotinamide riboside cation]	7.51
NC(=O)c1cccnc1 [Nicotinamide]	1.7
CN1CCCC1c1cccnc1 (configuration not stated) [Nicotine]	5.34
O=C(O)c1cccnc1 [Nicotinic acid]	4.01
O=C(O)CNC(=O)c1cccnc1 [Nicotinoylglycine]	7.08
COC(=O)C1=C(C)NC(C)=C(C(=O)OC)C1c1ccccc1[N+](=O)[O-] [Nifedipine]	1.02
Cn1c(NCCN(CCO)CCCc2ccc([N+](=O)[O-])cc2)cc(=O)n(C)c1=O [Nifekalant]	3.21
CN1C(=O)CN=C(c2ccccc2)c2cc([N+](=O)[O-])ccc21 [Nimetazepam]	0.98
COCCOC(=O)C1=C(C)NC(C)=C(C(=O)OC(C)C)C1c1cccc([N+](=O)[O-])c1 (configuration not stated) [Nimodipine]	0.94
CC(=O)Oc1ccccc1C(=O)Nc1ncc([N+](=O)[O-])s1 [Nitazoxanide]	1
O=C1CN=C(c2ccccc2)c2cc([N+](=O)[O-])ccc2N1 [Nitrazepam]	1.2

Compound	LC retention time [min]
CCOC(=O)C1=C(C)NC(C)=C(C(=O)OC)C1c1cccc([N+](=O)[O-])c1 (configuration not stated) [Nitrendipine]	0.95
CNC(=C[N+](=O)[O-])NCCSCc1csc(CN(C)C)n1 [Nizatidine]	4.65
COc1ccc(-c2cc(=O)c3c(OC)c(OC)c(OC)c(OC)c3o2)cc1OC [Nobiletin]	1
CCCCC(N)C(=O)O (configuration not stated) [Norleucine]	6.99
c1cncc(C2CCCN2)c1 (configuration not stated) [Nornicotine]	5.98
CCCC(N)C(=O)O (configuration not stated) [Norvaline]	4.89
COc1ccc2c(c1OC)C(=O)OC2C1c2c(cc3c(c2OC)OCO3)CCN1C (configuration not stated) [Noscapine]	1.31
CC(=O)OCC[C@H](N)C(=O)O [O-Acetyl-L-homoserine]	7.6
O=C1Nc2ccc(Cl)cc2C(c2ccccc2)=NC1O (configuration not stated) [Oxazepam]	1.37
COc1ccc2c3c1OC1C(=O)CCC4(O)C(C2)N(C)CCC314 (configuration not stated) [Oxycodone]	4.58
CN1CCC23c4c5ccc(O)c4OC2C(=O)CCC3(O)C1C5 (configuration not stated) [Oxymorphone]	5.5
COc1ccc(Cc2nccc3cc(OC)c(OC)cc23)cc1OC [Papaverine]	1.54
CCOP(=O)(OCC)Oc1ccc([N+](=O)[O-])cc1 [Paraoxon]	1.02
N=C1NC(=O)C(c2ccccc2)O1 (configuration not stated) [Pemoline]	1.39
CC(C)=CCN1CCC2(C)c3cc(O)ccc3CC1C2C (configuration not stated) [Pentazocine]	2.65
CC(=O)CCCCn1c(=O)c2c(ncn2C)n(C)c1=O [Pentoxifylline]	1.09
CCCN1CC(CSC)CC2c3cccc4[nH]cc(c34)CC21 (configuration not stated) [Pergolide]	2.41
CC1C(c2ccccc2)OCCN1C (configuration not stated) [Phendimetrazine]	2.52
NCCc1ccccc1 [Phenethylamine]	4.87
CC1NCCOC1c1ccccc1 (configuration not stated) [Phenmetrazine]	4.04
NC(=O)OCCCc1ccccc1 [Phenprobamate]	1.01
CC(C)(N)Cc1ccccc1 [Phentermine]	6.23
NCC(O)c1ccccc1 (configuration not stated) [Phenylethanolamine]	5.51
CC(N)C(O)c1ccccc1 (configuration not stated) [Phenylpropanolamine]	5.29
